# Assay results as given in PubChem BioAssay AID1963828 (Molecular Pharmacology Branch, DTP, NCI, 2024).
# pIC50: −log10 of the molar value.
# Test system: 991263-137-R1-J2-PDC complex spheroid viability
# Assay: Anticancer human tumor 991263-137-R1-J2-PDC patient-derived colon adenocarcinoma cell line growth inhibition [POLQ]
# Details: for pIC50: curve of first compound; for viability, T/C: stronger effect = lower value
# Protocol: Multicellular complex tumor spheroid response to Polymerase (POL) inhibitors (novobiocin, ART-558, RP6685) in combination with a variety of drugs and investigational agents in selected tumor cell lines
# The POL inhibitors (novobiocin, ART-558, and RP6685) were evaluated both individually and in combination with standard of care and investigational anticancer small molecules within a complex spheroid model of solid tumors. . Complex spheroids include a stromal component modeled by human endothelial cells (HUVEC) and fibroblasts modeled by human mesenchymal stem cells (MSCs). The concentration ranges selected for each drug and investigational agent were based upon clinically achievable concentrations if the clinical Cmax of the agent was known.
# Compounds. The drugs and investigational agents: novobiocin (NSC847541), ART-558 (NSC835418), RP-6685 (NSC848927), peposertib (NSC802822), ceralasertib (NSC780249), elimusertib (NSC800525), camonsertib (NSC841442), AZD-1390 (NSC803789), olaparib (NSC753686), talazoparib (NSC767125), rucaparib (NSC756644), sotorasib (NSC818433), MRTX-1133 (NSC836407), SN-38 (NSC673596), topotecan (NSC609699), epotoside (NSC141540), doxorubicin (NSC123127), gemcitabine (NSC613327), 5-fluorouracil (NSC19893), paclitaxel (NSC125973), vemurafenib (NSC761431), MSA-2 (NSC828583), SN-011 (NSC837082), adavosertib (NSC754352), prexasertib (NSC758257), carboplatin (NSC241240) and oxaliplatin (NSC266046), were obtained from the National Cancer Institute (NCI) Developmental Therapeutics Program Chemical Repository (21). The FDA-approved anticancer drug set is available from the Developmental Therapeutics Program at https://dtp.cancer.gov/organization/dscb/obtaining/. […] The stock solutions were prepared in dimethyl sulfoxide (DMSO, Sigma-Aldrich, St. Louis, MO, cat. D2650), except for the platinum compounds which were prepared in saline (Quality Biological, Gaithersburg, MD, cat. 114-055-101), at 800-fold the tested concentration and stored at -70 degrees C prior to their use. All drugs and investigational agents were tested over a range starting from a high concentration at or near the clinical Cmax and decreasing in half-log increments. If the clinical Cmax for an agent had not been determined, the highest concentration tested was 10 microM, except for SN-38, which was tested at a high concentration of 1 microM.
# Cell Culture. All cells were maintained in an incubator at 37 degrees C and 5% CO2 with 95% humidity. The PDC lines were cultured according to standard operating procedures established by the NCI PDMR (https://pdmr.cancer.gov). Table 3 of the manuscript, lists the cell lines along with the number of the three cell types plated to form the mct-spheroids and media for tumor cell growth. After thawing, all PDC lines, except 997537-175-T-J1-PDC and 415267-285-R-J2-PDC, were cultured in Matrigel-coated flasks prepared with a working solution of 1X Ham's F-12 nutrient mix, without supplementation (Thermo Fisher Scientific, cat. 11765054), 100 U/mL penicillin-streptomycin (Thermo Fisher Scientific, cat. 15140122), and 2.5% Matrigel (Corning Inc., Corning, NY, cat. 354248) for the first three passages. The two PDC lines 997537-175-T-J1-PDC and 415267-285-R-J2-PDC were cultured on uncoated flasks. The 857933-349-R-J2-PDC line was cultured in 6C/Colon 1B media containing advanced DMEM/F-12 (Thermo Fisher Scientific, cat. 12634028), 10 mM HEPES (Thermo Fisher Scientific, cat. 15630080), 1X GlutaMAX supplement (Thermo Fisher Scientific, cat. 35050061), 0.1 mg/mL primocin (InvivoGen, San Diego, CA, cat. ant-pm-2), 10% defined fetal bovine serum, heat inactivated (HyClone Laboratories Inc., Logan, UT, cat. SH30070.03HI), 50% L-WRN conditioned media (ATCC, cat. CRL-3276), 1.25 mM N-Acetyl-L-cysteine (Sigma-Aldrich, cat. A9165), 10 mM nicotinamide (Sigma-Aldrich, cat. N0636), 1X B-27 supplement (Thermo Fisher Scientific, cat. 17504044), 1X N-2 supplement (Thermo Fisher Scientific, cat. […]
# [1] = second compound 0.0316 µM, first compound 0.0316 µM
# [2] = second compound 0.0316 µM, first compound 0.1 µM
# [3] = second compound 0.0316 µM, first compound 0.316 µM
# [4] = second compound 0.0316 µM, first compound 1 µM
# [5] = second compound 0.0316 µM, first compound 3.16 µM
# [6] = second compound 0.0316 µM, first compound 10 µM
# [7] = second compound 0.1 µM, first compound 0.0316 µM
# [8] = second compound 0.1 µM, first compound 0.1 µM
# [9] = second compound 0.1 µM, first compound 0.316 µM
# [10] = second compound 0.1 µM, first compound 1 µM
# [11] = second compound 0.1 µM, first compound 3.16 µM
# [12] = second compound 0.1 µM, first compound 10 µM
# [13] = second compound 0.316 µM, first compound 0.0316 µM
# [14] = second compound 0.316 µM, first compound 0.1 µM
# [15] = second compound 0.316 µM, first compound 0.316 µM
# [16] = second compound 0.316 µM, first compound 1 µM
# [17] = second compound 0.316 µM, first compound 3.16 µM
# [18] = second compound 0.316 µM, first compound 10 µM
# [19] = second compound 1 µM, first compound 0.0316 µM
# [20] = second compound 1 µM, first compound 0.1 µM
# [21] = second compound 1 µM, first compound 0.316 µM
# [22] = second compound 1 µM, first compound 1 µM
# [23] = second compound 1 µM, first compound 3.16 µM
# [24] = second compound 1 µM, first compound 10 µM
# [25] = second compound 3.16 µM, first compound 0.0316 µM
# [26] = second compound 3.16 µM, first compound 0.1 µM
# [27] = second compound 3.16 µM, first compound 0.316 µM
# [28] = second compound 3.16 µM, first compound 1 µM
# [29] = second compound 3.16 µM, first compound 3.16 µM
# [30] = second compound 3.16 µM, first compound 10 µM
# [31] = second compound 10 µM, first compound 0.0316 µM
# [32] = second compound 10 µM, first compound 0.1 µM
# [33] = second compound 10 µM, first compound 0.316 µM
# [34] = second compound 10 µM, first compound 1 µM
# [35] = second compound 10 µM, first compound 3.16 µM
# [36] = second compound 10 µM, first compound 10 µM
# 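Note: spheroids exposed to compounds for 7 days before readout.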
# 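Throughout, for viability, T/C: 100% = DMSO vehicle control viability.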
smiles,measurement,setting,value
Nc1ccn(C2OC(CO)C(O)C2(F)F)c(=O)n1 (centres undefined) + COC1C(OC(N)=O)C(O)C(Oc2ccc3c(O)c(NC(=O)c4ccc(O)c(CC=C(C)C)c4)c(=O)oc3c2C)OC1(C)C,pIC50,second compound 0.0316 µM,6.26
same,pIC50,second compound 0.1 µM,6.05
same,pIC50,second compound 0.316 µM,5.72
same,pIC50,second compound 1 µM,6.07
same,pIC50,second compound 3.16 µM,6.13
same,pIC50,second compound 10 µM,5.95
same,"viability, T/C",[1],77.8%
same,"viability, T/C",[2],56%
same,"viability, T/C",[3],56.4%
same,"viability, T/C",[4],46.9%
same,"viability, T/C",[5],47.6%
same,"viability, T/C",[6],36.6%
same,"viability, T/C",[7],67.6%
same,"viability, T/C",[8],60.5%
same,"viability, T/C",[9],57.5%
same,"viability, T/C",[10],46.7%
same,"viability, T/C",[11],45.5%
same,"viability, T/C",[12],42%
same,"viability, T/C",[13],65.1%
same,"viability, T/C",[14],70.8%
same,"viability, T/C",[15],62%
same,"viability, T/C",[16],54.1%
same,"viability, T/C",[17],46.9%
same,"viability, T/C",[18],33%
same,"viability, T/C",[19],72.8%
same,"viability, T/C",[20],69.9%
same,"viability, T/C",[21],53.7%
same,"viability, T/C",[22],48.5%
same,"viability, T/C",[23],43.4%
same,"viability, T/C",[24],35.5%
same,"viability, T/C",[25],72.1%
same,"viability, T/C",[26],63.5%
same,"viability, T/C",[27],58%
same,"viability, T/C",[28],48%
same,"viability, T/C",[29],39.1%
same,"viability, T/C",[30],37.9%
same,"viability, T/C",[31],69.4%
same,"viability, T/C",[32],75.7%
same,"viability, T/C",[33],59.7%
same,"viability, T/C",[34],53.3%
same,"viability, T/C",[35],38.2%
same,"viability, T/C",[36],34.2%
O=C(c1cc(Cc2n[nH]c(=O)c3ccccc23)ccc1F)N1CCN(C(=O)C2CC2)CC1 + COC1C(OC(N)=O)C(O)C(Oc2ccc3c(O)c(NC(=O)c4ccc(O)c(CC=C(C)C)c4)c(=O)oc3c2C)OC1(C)C,pIC50,second compound 0.0316 µM,< 5.00
same,pIC50,second compound 0.1 µM,< 5.00
same,pIC50,second compound 0.316 µM,< 5.00
same,pIC50,second compound 1 µM,< 5.00
same,pIC50,second compound 3.16 µM,< 5.00
same,pIC50,second compound 10 µM,< 5.00
same,"viability, T/C",[1],99.2%
same,"viability, T/C",[2],96.8%
same,"viability, T/C",[3],90.2%
same,"viability, T/C",[4],92.7%
same,"viability, T/C",[5],96.9%
same,"viability, T/C",[6],95.5%
same,"viability, T/C",[7],99.2%
same,"viability, T/C",[8],101%
same,"viability, T/C",[9],100%
same,"viability, T/C",[10],82.1%
same,"viability, T/C",[11],85.5%
same,"viability, T/C",[12],85.6%
same,"viability, T/C",[13],113%
same,"viability, T/C",[14],109%
same,"viability, T/C",[15],81.6%
same,"viability, T/C",[16],92.5%
same,"viability, T/C",[17],113%
same,"viability, T/C",[18],108%
same,"viability, T/C",[19],93.9%
same,"viability, T/C",[20],98.1%
same,"viability, T/C",[21],78.2%
same,"viability, T/C",[22],93.7%
same,"viability, T/C",[23],73.5%
same,"viability, T/C",[24],101%
same,"viability, T/C",[25],94.5%
same,"viability, T/C",[26],103%
same,"viability, T/C",[27],104%
same,"viability, T/C",[28],85%
same,"viability, T/C",[29],109%
same,"viability, T/C",[30],113%
same,"viability, T/C",[31],82.4%
same,"viability, T/C",[32],94.7%
same,"viability, T/C",[33],106%
same,"viability, T/C",[34],78.4%
same,"viability, T/C",[35],112%
same,"viability, T/C",[36],103%
